Measurements as given in the NIST ThermoML archive (doi:10.1016/j.jct.2008.05.014).

Experiment: xn = mol fraction of the nth substance listed
Conditions: Liquid; for speed of sound: Pulse-echo method

CCCCCCCCCCCC [dodecane] + CCCCCCC
Conditions | mass density [kg/m3] | speed of sound [m/s]
292.89 K, 101 kPa, x2 = 0.7002 | – | 1210.7
292.89 K, 101 kPa, x2 = 0.8995 | – | 1174.4
292.89 K, 30390 kPa, x2 = 0.8496 | – | 1366.5
292.89 K, 45590 kPa, x2 = 0.8496 | – | 1439.7
292.89 K, 60790 kPa, x2 = 0.8496 | – | 1505.9
292.89 K, 91180 kPa, x2 = 0.8496 | – | 1623.3
292.9 K, 101 kPa, x2 = 0.8 | – | 1193.4
292.91 K, 101 kPa, x2 = 0.1007 | – | 1289.6
292.91 K, 101 kPa, x2 = 0.2001 | – | 1279
292.91 K, 101 kPa, x2 = 0.5002 | – | 1241.3
293.15 K, 101 kPa, x2 = 0 | 748.921 | –
293.15 K, 101 kPa, x2 = 0.0991 | 744.788 | –
293.15 K, 101 kPa, x2 = 0.2008 | 740.186 | –
293.15 K, 101 kPa, x2 = 0.2998 | 735.319 | –
293.15 K, 101 kPa, x2 = 0.3996 | 729.97 | –
293.15 K, 101 kPa, x2 = 0.5 | 724.072 | –
293.15 K, 101 kPa, x2 = 0.6 | 717.632 | –
293.15 K, 101 kPa, x2 = 0.7005 | 710.489 | –
293.15 K, 101 kPa, x2 = 0.7995 | 702.66 | –
293.15 K, 101 kPa, x2 = 0.8486 | 698.428 | –
293.15 K, 101 kPa, x2 = 0.8988 | 693.851 | –
293.15 K, 101 kPa, x2 = 0.9498 | 688.947 | –
298.14 K, 30390 kPa, x2 = 0.97 | – | 1329.4
298.14 K, 30410 kPa, x2 = 0.9391 | – | 1333.2
298.14 K, 45590 kPa, x2 = 0.9391 | – | 1408.7
298.14 K, 45590 kPa, x2 = 0.97 | – | 1405.4
298.14 K, 60790 kPa, x2 = 0.9391 | – | 1476.6
298.14 K, 60790 kPa, x2 = 0.97 | – | 1473.9
298.14 K, 75990 kPa, x2 = 0.97 | – | 1536.2
298.14 K, 91180 kPa, x2 = 0.9391 | – | 1596.4
298.14 K, 91180 kPa, x2 = 0.97 | – | 1594.1
298.14 K, 101320 kPa, x2 = 0.9391 | – | 1632.6
298.14 K, 101320 kPa, x2 = 0.97 | – | 1630.6
298.15 K, 101 kPa, x2 = 0 | 745.269 | –
298.15 K, 101 kPa, x2 = 0.0991 | 741.128 | –
298.15 K, 101 kPa, x2 = 0.2008 | 736.497 | –
298.15 K, 101 kPa, x2 = 0.2998 | 731.58 | –
298.15 K, 101 kPa, x2 = 0.5 | 720.233 | –
298.15 K, 101 kPa, x2 = 0.7005 | 706.501 | –
298.15 K, 101 kPa, x2 = 0.7995 | 698.598 | –
298.15 K, 101 kPa, x2 = 0.8486 | 694.34 | –
298.15 K, 101 kPa, x2 = 0.8988 | 689.718 | –
298.15 K, 101 kPa, x2 = 0.9498 | 684.775 | –
298.15 K, 15200 kPa, x2 = 0.5003 | – | 1314.6
298.15 K, 15200 kPa, x2 = 0.9391 | – | 1247.1
298.15 K, 15200 kPa, x2 = 0.97 | – | 1242.9
298.15 K, 30390 kPa, x2 = 0.4999 | – | 1393.4
298.15 K, 30390 kPa, x2 = 0.5003 | – | 1393.3
298.15 K, 45590 kPa, x2 = 0.1014 | – | 1499.1
298.15 K, 45590 kPa, x2 = 0.4999 | – | 1464
298.15 K, 45590 kPa, x2 = 0.5003 | – | 1464.1
298.15 K, 45590 kPa, x2 = 0.7007 | – | 1440.8
298.15 K, 60790 kPa, x2 = 0.1014 | – | 1560.5
298.15 K, 60790 kPa, x2 = 0.3007 | – | 1544.4
298.15 K, 60790 kPa, x2 = 0.4999 | – | 1527.7
298.15 K, 60790 kPa, x2 = 0.5003 | – | 1528
298.15 K, 60790 kPa, x2 = 0.7007 | – | 1506.5
298.15 K, 75990 kPa, x2 = 0.1014 | – | 1618.2
298.15 K, 75990 kPa, x2 = 0.4999 | – | 1586.8
298.15 K, 75990 kPa, x2 = 0.5003 | – | 1587
298.15 K, 75990 kPa, x2 = 0.7007 | – | 1566.5
298.15 K, 75990 kPa, x2 = 0.9391 | – | 1538.7
298.15 K, 91180 kPa, x2 = 0.1014 | – | 1671
298.15 K, 91180 kPa, x2 = 0.4999 | – | 1641.7
